# ChEMBL document CHEMBL1201862, “PubChem BioAssay data set” (2004)
#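 The compound was tested at five concentrations on cells cultured in 96-well plates, with a 48-hour exposure period. The concentration for 50% growth inhibition is given as GI50.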 Calls of active or inactive are those of the source. No stated cut-off is given here; in the data, active = GI50 up to about 1.1 µM and inactive = higher.
# Experiments:
# Experiment in all cases: inhibition of tumour cell growth, NCI panel, 48 h
# SN12C = test system: SN12C
# KM12 = test system: KM12
# SNB-19 = test system: SNB-19
# OVCAR-5 = test system: OVCAR-5
# U-251 = test system: U-251
# M14 = test system: M14
# LOX IMVI = test system: LOX IMVI
# NCI-H460 = test system: NCI-H460
# UACC-62 = test system: UACC-62
# EKVX = test system: EKVX
# A498 = test system: A498
# NCI-H522 = test system: NCI-H522
# TK-10 = test system: TK-10
# HCT-116 = test system: HCT-116
# DU-145 = test system: DU-145
# CAKI-1 = test system: CAKI-1
# IGROV-1 = test system: IGROV-1
# MCF7 = test system: MCF7
# SNB-75 = test system: SNB-75
# HCT-15 = test system: HCT-15
# HL-60 = test system: HL-60
# T47D = test system: T47D
# NCI-H226 = test system: NCI-H226
# SF-295 = test system: SF-295
# MDA-MB-435 = test system: MDA-MB-435
# 786-0 = test system: 786-0
# OVCAR-4 = test system: OVCAR-4
# CCRF-CEM = test system: CCRF-CEM
# Hs-578T = test system: Hs-578T
# NCI-H23 = test system: NCI-H23
# RXF 393 = test system: RXF 393
# HT-29 = test system: HT-29
# K562 = test system: K562
# RPMI-8226 = test system: RPMI-8226
# NCI/ADR-RES = test system: NCI/ADR-RES
# SW-620 = test system: SW-620
# OVCAR-8 = test system: OVCAR-8
# HOP-62 = test system: HOP-62
# SK-MEL-28 = test system: SK-MEL-28
# MOLT-4 = test system: MOLT-4
# SF-268 = test system: SF-268
# A549 = test system: A549
# HCC 2998 = test system: HCC 2998
# ACHN = test system: ACHN
# MDA-MB-231 = test system: MDA-MB-231
# SK-MEL-2 = test system: SK-MEL-2
# PC-3 = test system: PC-3
# BT-549 = test system: BT-549
# COLO 205 = test system: COLO 205
# OVCAR-3 = test system: OVCAR-3
# UACC-257 = test system: UACC-257
# Malme-3M = test system: Malme-3M
# SF-539 = test system: SF-539
# SK-OV-3 = test system: SK-OV-3
# HOP-92 = test system: HOP-92
# MDA-N = test system: MDA-N
# UO-31 = test system: UO-31
# SR = test system: SR
# SK-MEL-5 = test system: SK-MEL-5
structure (smiles),measurement,setting,value
O=C(N/N=C(COc1cccc(Cl)c1)\N=C\c1cccnc1)c1ccncc1,GI50,SN12C,> 100 µM (inactive)
same,GI50,KM12,> 100 µM (inactive)
same,GI50,SNB-19,> 100 µM (inactive)
same,GI50,OVCAR-5,> 100 µM (inactive)
same,GI50,U-251,> 100 µM (inactive)
same,GI50,M14,> 100 µM (inactive)
same,GI50,LOX IMVI,> 100 µM (inactive)
same,GI50,NCI-H460,> 100 µM (inactive)
same,GI50,UACC-62,> 100 µM (inactive)
same,GI50,EKVX,> 100 µM (inactive)
same,GI50,A498,40.6 µM (inactive)
same,GI50,NCI-H522,63.7 µM (inactive)
same,GI50,TK-10,> 100 µM (inactive)
same,GI50,HCT-116,> 100 µM (inactive)
same,GI50,DU-145,> 100 µM (inactive)
same,GI50,CAKI-1,73.5 µM (inactive)
same,GI50,IGROV-1,> 100 µM (inactive)
same,GI50,MCF7,> 100 µM (inactive)
same,GI50,SNB-75,18.5 µM (inactive)
same,GI50,HCT-15,> 100 µM
same,GI50,HL-60,> 100 µM (inactive)
same,GI50,T47D,32.5 µM (inactive)
same,GI50,NCI-H226,93.5 µM (inactive)
same,GI50,SF-295,> 100 µM (inactive)
same,GI50,MDA-MB-435,> 100 µM (inactive)
same,GI50,786-0,> 100 µM (inactive)
same,GI50,OVCAR-4,84.7 µM (inactive)
same,GI50,CCRF-CEM,> 100 µM (inactive)
same,GI50,Hs-578T,83.4 µM (inactive)
same,GI50,NCI-H23,> 100 µM (inactive)
same,GI50,RXF 393,35.3 µM (inactive)
same,GI50,HT-29,> 100 µM (inactive)
same,GI50,K562,> 100 µM (inactive)
same,GI50,RPMI-8226,> 100 µM (inactive)
same,GI50,NCI/ADR-RES,> 100 µM (inactive)
same,GI50,SW-620,> 100 µM (inactive)
same,GI50,OVCAR-8,89.3 µM (inactive)
same,GI50,HOP-62,> 100 µM (inactive)
same,GI50,SK-MEL-28,> 100 µM (inactive)
same,GI50,MOLT-4,> 100 µM (inactive)
same,GI50,SF-268,> 100 µM (inactive)
same,GI50,A549,> 100 µM (inactive)
same,GI50,HCC 2998,> 100 µM (inactive)
same,GI50,ACHN,91.2 µM (inactive)
same,GI50,MDA-MB-231,> 100 µM (inactive)
same,GI50,SK-MEL-2,> 100 µM (inactive)
same,GI50,PC-3,> 100 µM (inactive)
same,GI50,BT-549,> 100 µM (inactive)
same,GI50,COLO 205,95.9 µM (inactive)
same,GI50,OVCAR-3,> 100 µM (inactive)
same,GI50,UACC-257,90.4 µM (inactive)
same,GI50,Malme-3M,> 100 µM (inactive)
same,GI50,SF-539,> 100 µM (inactive)
same,GI50,SK-OV-3,> 100 µM (inactive)
same,GI50,HOP-92,24.9 µM (inactive)
same,GI50,MDA-N,> 100 µM (inactive)
COC(=O)C1=C(OC(=O)/C(=C/c2ccccc2)c2ccc(OC)cc2)C(C(=O)OC)[C@@]2(O)[C@@H](C(=O)OC)[C@H](C)C[C@@H]1[C@@H]2C(=O)OC (some centres undefined),GI50,SN12C,> 100 µM (inactive)
same,GI50,KM12,> 100 µM (inactive)
same,GI50,UO-31,> 100 µM (inactive)
same,GI50,SNB-19,32.4 µM (inactive)
same,GI50,OVCAR-5,65.6 µM (inactive)
same,GI50,U-251,63.2 µM (inactive)
same,GI50,M14,> 100 µM (inactive)
same,GI50,LOX IMVI,> 100 µM (inactive)
same,GI50,NCI-H460,> 100 µM (inactive)
same,GI50,UACC-62,> 100 µM (inactive)
same,GI50,EKVX,> 100 µM (inactive)
same,GI50,A498,> 100 µM (inactive)
same,GI50,NCI-H522,35.3 µM (inactive)
same,GI50,TK-10,> 100 µM (inactive)
same,GI50,HCT-116,> 100 µM (inactive)
same,GI50,DU-145,> 100 µM (inactive)
same,GI50,CAKI-1,> 100 µM (inactive)
same,GI50,IGROV-1,55.7 µM (inactive)
same,GI50,MCF7,> 100 µM (inactive)
same,GI50,SNB-75,24.2 µM (inactive)
same,GI50,HCT-15,> 100 µM
same,GI50,HL-60,> 100 µM (inactive)
same,GI50,T47D,> 100 µM (inactive)
same,GI50,NCI-H226,> 100 µM (inactive)
same,GI50,SF-295,> 100 µM (inactive)
same,GI50,MDA-MB-435,> 100 µM (inactive)
same,GI50,786-0,26.1 µM (inactive)
same,GI50,OVCAR-4,> 100 µM (inactive)
same,GI50,CCRF-CEM,> 100 µM (inactive)
same,GI50,Hs-578T,20.6 µM (inactive)
same,GI50,NCI-H23,50.1 µM (inactive)
same,GI50,RXF 393,17.8 µM (inactive)
same,GI50,HT-29,> 100 µM (inactive)
same,GI50,SR,> 100 µM (inactive)
same,GI50,K562,> 100 µM (inactive)
same,GI50,RPMI-8226,> 100 µM (inactive)
same,GI50,NCI/ADR-RES,> 100 µM (inactive)
same,GI50,SW-620,> 100 µM (inactive)
same,GI50,OVCAR-8,35.6 µM (inactive)
same,GI50,HOP-62,> 100 µM (inactive)
same,GI50,SK-MEL-28,> 100 µM (inactive)
same,GI50,MOLT-4,> 100 µM (inactive)
same,GI50,SF-268,> 100 µM (inactive)
same,GI50,A549,50.1 µM (inactive)
same,GI50,HCC 2998,> 100 µM (inactive)
same,GI50,ACHN,> 100 µM (inactive)
same,GI50,MDA-MB-231,18.7 µM (inactive)
same,GI50,SK-MEL-2,> 100 µM (inactive)
same,GI50,PC-3,> 100 µM (inactive)
same,GI50,BT-549,21 µM (inactive)
same,GI50,COLO 205,> 100 µM (inactive)
same,GI50,OVCAR-3,> 100 µM (inactive)
same,GI50,UACC-257,> 100 µM (inactive)
same,GI50,Malme-3M,> 100 µM (inactive)
same,GI50,SK-MEL-5,> 100 µM (inactive)
same,GI50,SF-539,> 100 µM (inactive)
same,GI50,SK-OV-3,80.4 µM (inactive)
same,GI50,MDA-N,> 100 µM (inactive)
